Laboratory results reported in article PMC7031696 (Cell chemical biology, 2019).
Like-named read-outs stand apart in the source and are kept apart here.

Experiments:
[1] = system: Plasmodium falciparum 3D7-A10 parasites; experiment: Stage specificity assay (8-h exposure of synchronized stages, IC50^8h); type: cell-based; settings: Plasmodium falciparum
[2] = system: asynchronous 3D7-A10 parasite cultures; experiment: Standard 72-h exposure asexual blood stage susceptibility assay (IC50^72h); type: cell-based, Plasmodium falciparum; settings: Plasmodium falciparum, 3D7, 72 h, read-out: Overall (72hr assay) Mean IC50 (IC50^72h)
[3] = system: 3D7-MR4 trophozoite parasite-infected RBCs; experiment: Metabolomic profiling (hydrophilic metabolite changes, UHPLC-MS); type: cell-based, Plasmodium falciparum

O=C(Nc1ccc(N2CCNCC2)cc1)c1ccn2ncc(-c3cccc(Cl)c3)c2n1.O=C(O)C(F)(F)F [MMV022478]
IC50 ([1]; 3D7, 8 h, read-out: IC50^8h values at all tested stages, 8-h exposures, all asexual blood stages): > 1 µM | IC50 ([1]; 3D7, read-out: Early rings Mean IC50 (IC50^8h), 8-h exposure 0–8 hr, 3D7-A10, survival at 60 h): 7.63 µM | IC50 ([1]; 3D7, read-out: Early trophozoites Mean IC50 (IC50^8h), 8-h exposure 16–24 hr, 3D7-A10, survival at 60 h): 2.13 µM | IC50 ([1]; 3D7, read-out: Late rings Mean IC50 (IC50^8h), 8-h exposure 8–16 hr, 3D7-A10, survival at 60 h): 4.87 µM | IC50 ([1]; 3D7, read-out: Late trophozoites Mean IC50 (IC50^8h), 8-h exposure 24–32 hr, 3D7-A10, survival at 60 h): 2.53 µM | IC50 ([1]; 3D7, read-out: Schizonts Mean IC50 (IC50^8h), 8-h exposure 32–40 hr, 3D7-A10, survival at 60 h): 3.37 µM | IC50 [2]: 0.0111 µM | peptide levels (hemoglobin catabolism signature) ([3]; 10 × IC50^72h, 2.5 hr, trophozoites): decreased peptide levels | Log2(fold changes) 3-phosphoglycerate ([3]; metabolite 3-phosphoglycerate, log2 fold change): -0.2221 | Log2(fold changes) 4-Pyridoxic acid ([3]; metabolite 4-Pyridoxic acid, log2 fold change): 0.0000 | Log2(fold changes) 4-aminobutyrate ([3]; metabolite 4-aminobutyrate, log2 fold change): -1.1535 | Log2(fold changes) 4-phosphopantetheine ([3]; metabolite 4-phosphopantetheine, log2 fold change): 0.0000 | Log2(fold changes) 4-phosphopantothenate ([3]; metabolite 4-phosphopantothenate, log2 fold change): -2.5840 | Log2(fold changes) 5-aminopentanoic acid ([3]; metabolite 5-aminopentanoic acid, log2 fold change): 0.0000 | Log2(fold changes) 5-methyl-THF ([3]; metabolite 5-methyl-THF, log2 fold change): 0.0000 | Log2(fold changes) 5-phosphoribosyl-1-pyrophosphate ([3]; metabolite 5-phosphoribosyl-1-pyrophosphate, log2 fold change): -3.8277 | Log2(fold changes) 6-phospho-D-gluconate ([3]; metabolite 6-phospho-D-gluconate, log2 fold change): -1.2363 | Log2(fold change) HVDD ([3]; metabolite HVDD): -6.0354 | Log2(fold change) Hydroxyisocaproic acid ([3]; metabolite Hydroxyisocaproic acid): 0.0000 | Log2(fold change) IDP ([3]; metabolite IDP): 0.0000 | Log2(fold change) IMP ([3]; metabolite IMP): -1.9723 | Log2(fold change) Inositol ([3]; metabolite Inositol): 0.0000 | Log2(fold change) Isopentyl-PP ([3]; metabolite Isopentyl-PP): 0.0000 | Log2(fold change) L-arginino-succinate ([3]; metabolite L-arginino-succinate): 0.0000 | Log2(fold change) LD ([3]; metabolite LD): 0.0000 | Log2(fold change) Myristoyl/tetradecanoyl-CoA ([3]; metabolite Myristoyl/tetradecanoyl-CoA): 0.0000 | Log2(fold change) N-Acetyl-L-alanine ([3]; metabolite N-Acetyl-L-alanine): -4.1046 | Log2(fold change) N-acetyl-L-ornithine ([3]; metabolite N-acetyl-L-ornithine): -4.9077 | Log2(fold change) N-acetyl-glucosamine-1/6-phosphate ([3]; metabolite N-acetyl-glucosamine-1/6-phosphate): -2.7078 | Log2(fold change) N-acetyl-glutamate ([3]; metabolite N-acetyl-glutamate): -2.2943 | Log2(fold change) N-acetyl-glutamine ([3]; metabolite N-acetyl-glutamine): 0.0000 | Log2(fold change) N-carbamoyl-L-aspartate ([3]; metabolite N-carbamoyl-L-aspartate): -4.4049 | Log2(fold change) NAD+ ([3]; metabolite NAD+): 0.0000 | Log2(fold change) NADH ([3]; metabolite NADH): 0.4682 | Log2(fold change) NADP+ ([3]; metabolite NADP+): -1.0797 | Log2(fold change) NADPH ([3]; metabolite NADPH): -1.0955 | Log2(fold change) O-acetyl-L-serine ([3]; metabolite O-acetyl-L-serine): 0.0000 | Log2(fold change) Octoluse 8/1P ([3]; metabolite Octoluse 8/1P): 0.0000 | Log2(fold change) Octoluse Bisphosphate ([3]; metabolite Octoluse Bisphosphate): -0.1243 | Log2(fold change) PD ([3]; metabolite PD): -4.6260 | Log2(fold change) PE ([3]; metabolite PE): -5.1379 | Log2(fold change) PEE ([3]; metabolite PEE): -4.6436 | Log2(fold change) PEEK ([3]; metabolite PEEK): 0.0000 | Log2(fold change) PVNF ([3]; metabolite PVNF): -7.1540 | Log2(fold change) Pyroglutamic acid ([3]; metabolite Pyroglutamic acid): 0.0000 | Log2(fold change) Pyrophosphate ([3]; metabolite Pyrophosphate): 0.0000 | Log2(fold change) Ribose-5-phosphate ([3]; metabolite Ribose-5-phosphate): -2.7334 | Log2(fold change) S-adenosyl-L-homocysteine ([3]; metabolite S-adenosyl-L-homocysteine): -2.8781 | Log2(fold change) S-adenosyl-L-methioninamine ([3]; metabolite S-adenosyl-L-methioninamine): 0.0000 | Log2(fold change) S-adenosyl-L-methionine ([3]; metabolite S-adenosyl-L-methionine): 0.0000 | Log2(fold change) S-methyl-5'-thioadenosine ([3]; metabolite S-methyl-5'-thioadenosine): 0.0000 | Log2(fold change) SD ([3]; metabolite SD): -2.2622 | Log2(fold change) SDL ([3]; metabolite SDL): 0.0000 | Log2(fold change) SID ([3]; metabolite SID): -5.7557 | Log2(fold change) Sedoheptulose bisphosphate ([3]; metabolite Sedoheptulose bisphosphate): -0.2613 | Log2(fold change) Thiamine pyrophosphate ([3]; metabolite Thiamine pyrophosphate): 0.0000 | Log2(fold changes) UDP-D-glucose ([3]; metabolite UDP-D-glucose, log2 fold change): -0.2797 | Log2(fold changes) UDP-D-glucuronate ([3]; metabolite UDP-D-glucuronate, log2 fold change): -0.6750 | Log2(fold changes) UDP-N-acetyl-glucosamine ([3]; metabolite UDP-N-acetyl-glucosamine, log2 fold change): -0.7739 | Log2(fold changes) UDP ([3]; metabolite UDP, log2 fold change): -2.1596 | Log2(fold changes) UMP ([3]; metabolite UMP, log2 fold change): -1.4504 | Log2(fold changes) UTP ([3]; metabolite UTP, log2 fold change): -1.2572 | Log2(fold change) hydroxyphenylpyruvate ([3]; metabolite hydroxyphenylpyruvate): 0.0000 | Log2(fold change) hydroxyproline/Aminolevulinate ([3]; metabolite hydroxyproline/Aminolevulinate): -0.1426 | Log2(fold change) hypoxanthine ([3]; metabolite hypoxanthine): 0.3419 | Log2(fold change) indole ([3]; metabolite indole): 0.0000 | Log2(fold change) inosine ([3]; metabolite inosine): -0.5164 | Log2(fold change) isoleucine ([3]; metabolite isoleucine): 0.2629 | Log2(fold change) lactate ([3]; metabolite lactate): -0.9550 | Log2(fold change) leucine ([3]; metabolite leucine): 0.0229 | Log2(fold change) lysine ([3]; metabolite lysine): 0.0000 | Log2(fold change) malate ([3]; metabolite malate): -1.9880 | Log2(fold change) maleic acid ([3]; metabolite maleic acid): -2.0576 | Log2(fold change) methionine ([3]; metabolite methionine): 0.4668 | Log2(fold change) myo-inositol ([3]; metabolite myo-inositol): 0.0000 | Log2(fold change) nicotinamide mononucleotide ([3]; metabolite nicotinamide mononucleotide): 0.0000 | Log2(fold change) nicotinate ([3]; metabolite nicotinate): -0.5789 | Log2(fold change) ornithine ([3]; metabolite ornithine): 0.0000 | Log2(fold change) orotate ([3]; metabolite orotate): -1.4233 | Log2(fold change) orotidine-5'-phosphate ([3]; metabolite orotidine-5'-phosphate): -3.1182 | Log2(fold change) oxaloacetate ([3]; metabolite oxaloacetate): 0.0000 | Log2(fold change) p-aminobenzoate ([3]; metabolite p-aminobenzoate): 0.0000 | Log2(fold change) p-hydroxybenzoate ([3]; metabolite p-hydroxybenzoate): 0.0000 | Log2(fold change) pantothenate ([3]; metabolite pantothenate): -0.7783 | Log2(fold change) phenylalanine ([3]; metabolite phenylalanine): -0.1127 | Log2(fold change) phenylpyruvate ([3]; metabolite phenylpyruvate): 0.0000 | Log2(fold change) phosphoenolpyruvate ([3]; metabolite phosphoenolpyruvate): 0.1262 | Log2(fold change) prephenate ([3]; metabolite prephenate): 0.0000 | Log2(fold change) proline ([3]; metabolite proline): -0.3073 | Log2(fold change) pyridoxine ([3]; metabolite pyridoxine): 0.2157 | Log2(fold change) pyruvate ([3]; metabolite pyruvate): -1.6686 | Log2(fold change) riboflavin ([3]; metabolite riboflavin): 0.0000 | Log2(fold change) ribose ([3]; metabolite ribose): 0.4922 | Log2(fold change) ribose-phosphate ([3]; metabolite ribose-phosphate): -2.5305 | Log2(fold change) ribulose-5-phosphate ([3]; metabolite ribulose-5-phosphate): -2.3648 | Log2(fold change) serine ([3]; metabolite serine): -0.3911 | Log2(fold change) sn-glycerol-3-phosphate ([3]; metabolite sn-glycerol-3-phosphate): -0.4279 | Log2(fold change) succinate/Methylmalonic acid ([3]; metabolite succinate/Methylmalonic acid): -3.0813 | Log2(fold change) succinyl-CoA/methylmalonyl-CoA ([3]; metabolite succinyl-CoA/methylmalonyl-CoA): -1.6128 | Log2(fold change) taurine ([3]; metabolite taurine): 0.0000 | Log2(fold change) thiamine ([3]; metabolite thiamine): 0.0000 | Log2(fold change) threonine/homoserine ([3]; metabolite threonine/homoserine): -0.6870 | Log2(fold change) thymidine ([3]; metabolite thymidine): 0.0000 | Log2(fold changes) thymine ([3]; metabolite thymine, log2 fold change): 0.0000 | Log2(fold changes) trehalose-6-Phosphate ([3]; metabolite trehalose-6-Phosphate, log2 fold change): 0.0000 | Log2(fold changes) tryptophan ([3]; metabolite tryptophan, log2 fold change): 0.1771 | Log2(fold changes) tyrosine ([3]; metabolite tyrosine, log2 fold change): -0.0043 | Log2(fold changes) uridine ([3]; metabolite uridine, log2 fold change): 0.0000
